Assays:
[1] = Ratio of uptake of [GD] in bone 1 hr post injection with 0.002 to that of blood; assay type: functional
Rattus norvegicus [2] = species: Rattus norvegicus; assay: Biodistribution in rat bone in the presence of NCAGd/0.01 M lig; assay type: ADME, organism-based, Bone element; details: in vivo
[3] = Ratio of uptake of [GD] in bone 1 hr post injection with 0.002 to that of muscle; assay type: functional
Rattus norvegicus [4] = species: Rattus norvegicus; assay: Uptake of [GD] in bone 1 hr post injection with 0.002 of the compound; assay type: functional, Bone element
Rattus norvegicus [5] = species: Rattus norvegicus; assay: Biodistribution in rat liver by in the presence of NCAGd/0.01 M lig; assay type: ADME, organism-based; details: in vivo
Rattus norvegicus [6] = species: Rattus norvegicus; assay: Uptake of [GD] in bone 1 hr post injection with 0.0005 of the compound; assay type: functional, Bone element
[7] = Ratio of uptake of [GD] in bone 1 hr post injection with 0.0005 to that of muscle; assay type: functional
[8] = Ration of Uptake of [GD] in bone 1 hr post injection with NCA GD dose to that of muscle; assay type: functional
[9] = Ratio of uptake of [GD] in bone 1 hr post injection with 0.005 to that of blood; assay type: functional
Rattus norvegicus [10] = species: Rattus norvegicus; assay: Biodistribution in rat blood in the presence of NCAGd/0.01 M lig; assay type: ADME, organism-based; details: in vivo
[11] = Ratio of uptake of [GD] in bone 1 hr post injection with 0.0005 to that of blood; assay type: functional
Rattus norvegicus [12] = species: Rattus norvegicus; assay: Uptake of [GD] in bone 1 hr post injection with NCA GD dose; assay type: functional, Bone element
Rattus norvegicus [13] = species: Rattus norvegicus; assay: Biodistribution in rat spleen in the presence of NCAGd/0.01 M lig; assay type: ADME, organism-based; details: in vivo
Rattus norvegicus [14] = species: Rattus norvegicus; assay: Biodistribution in rat heart in the presence of NCAGd/0.01 M lig; assay type: ADME, organism-based; details: in vivo
Rattus norvegicus [15] = species: Rattus norvegicus; assay: Uptake of [GD] in bone 1 hr post injection with 0.005 of the compound; assay type: functional, Bone element
Rattus norvegicus [16] = species: Rattus norvegicus; assay: Biodistribution in rat muscle in the presence of NCAGd/0.01 M lig; assay type: ADME, organism-based, Muscle tissue; details: in vivo
[17] = Ratio of uptake of [GD] in bone 1 hr post injection with NCA GD dose to that of blood; assay type: functional
[18] = Ratio of uptake of [GD] in bone 1 hr post injection with 0.005 to that of muscle; assay type: functional
Rattus norvegicus [19] = species: Rattus norvegicus; assay: Biodistribution in rat kidney in the presence of NCAGd/0.01 M lig; assay type: ADME, organism-based; details: in vivo
[20] = Uptake of [GD] in bone 1 hr post injection with 0.01 to that of muscle; assay type: functional, Muscle tissue
Rattus norvegicus [21] = species: Rattus norvegicus; assay: Uptake of [GD] in bone 1 h post injection with 0.01 of the compound; assay type: functional, Bone element
[22] = Ratio of uptake of [GD] in bone 1 hr post injection with 0.05 to that of blood; assay type: functional
Rattus norvegicus [23] = species: Rattus norvegicus; assay: Uptake of [GD] in bone 1 hr post injection with 0.10 of the compound; assay type: functional, Bone element
Rattus norvegicus [24] = species: Rattus norvegicus; assay: Uptake of [GD] in bone 1 hr post injection with 0.05 of the compound; assay type: functional, Bone element
[25] = Ratio of uptake of [GD] in bone 1 hr post injection with 0.10 to that of blood; assay type: functional
[26] = Ratio of uptake of [GD] in bone 1 hr post injection with 0.10 to that of muscle; assay type: functional
[27] = Ratio of uptake of [GD] in bone 1 hr post injection with 0.01 to that of blood; assay type: functional
[28] = Ratio of uptake of [GD] in bone 1 hr post injection with 0.05 to that of muscle; assay type: functional
[29] = Ratio of uptake of [GD] in bone 1 hr post injection with 0.01 to that of muscle; assay type: functional
[30] = Ratio of uptake of [GD] in bone 1 hr post injection with 0.01 (N) to that of muscle
[31] = Ratio of uptake of [GD] in bone 1 hr post injection with 0.01 (N) to that of blood
Rattus norvegicus [32] = species: Rattus norvegicus; assay: Uptake of [GD] in bone 1 hr post injection with 0.01 (N) of the compound

Molecule `CC(O)C(C)NCCNC(C)C(C)O` (stereo unspecified) has a Ratio [1] of 0.206%, an ID/organ (Rattus norvegicus [2]) of 51.4% and a Ratio [3] of 1.81%. The ID (Rattus norvegicus [4]) was 6.9%, the ID/organ (Rattus norvegicus [5]) was 28.5% and the ID (Rattus norvegicus [6]) was 6.54%. The Ratio [7] was 2.19%, the Ratio [8] was 8.81% and the Ratio [9] was 0.167%. The ID/organ (Rattus norvegicus [10]) was 3.12%, the Ratio [11] was 0.234% and the ID (Rattus norvegicus [12]) was 51.4%. It also gave an ID/organ (Rattus norvegicus [13]) of 0.44%, an ID/organ (Rattus norvegicus [14]) of 0.295% and an ID (Rattus norvegicus [15]) of 5.07%. For the same molecule, the ID/organ (Rattus norvegicus [16]) was 5.85%, the Ratio [17] was 16.5% and the Ratio [18] was 1.67%. The ID/organ (Rattus norvegicus [19]) was 2.87%.

Work on `O=C(O)CN(CCN(CC(=O)O)CC(=O)O)CCN(CC(=O)O)CC(=O)NCCCP(=O)(O)OP(=O)(O)O` yielded a Ratio [20] of 5.39, an ID (Rattus norvegicus [21]) of 22.9% and a Ratio [22] of 6.42. The ID (Rattus norvegicus [23]) was 13.7%, the ID (Rattus norvegicus [24]) was 17.6% and the Ratio [25] was 8.56. For the same molecule, the Ratio [26] was 2.76, the Ratio [27] was 2.12 and the Ratio [28] was 3.38.

For `CC(CO)NCCNC(C)C(C)O` (stereo unspecified), the ID/organ (Rattus norvegicus [2]) was 59.6%, the ID (Rattus norvegicus [21]) was 6.88% and the Ratio [29] was 1.22%. The ID/organ (Rattus norvegicus [5]) was 21.5%, the Ratio [30] was 1.55% and the ID/organ (Rattus norvegicus [10]) was 2.31%. The Ratio [31] was 0.18%, the ID (Rattus norvegicus [12]) was 59.6% and the ID/organ (Rattus norvegicus [13]) was 0.13%. It also gave an ID/organ (Rattus norvegicus [14]) of 0.315%, an ID/organ (Rattus norvegicus [16]) of 6.25% and an ID/organ (Rattus norvegicus [19]) of 2.75%. For the same molecule, the ID (Rattus norvegicus [32]) was 3.33%.

Source: ChEMBL document CHEMBL1124314, “Development of phosphonate derivatives of gadolinium chelates for NMR imaging of calcified soft tissues” (J Med Chem, 1989)
